Legend:
dsDNA = assay: Spectral fluorescent titration of the dyes with dsDNA in PBS; format: binding, chick; details: for Ifl/Ifl0, relative increase in the fluorescence intensity: cdsDNA = 1 × 10^−4 mol L^−1; for hypochromia of the absorption band: cdsDNA = 1 × 10^−4 mol L^−1, compared to the initial spectra in PBS; for φfl^b, fluorescence quantum yield of the dye in the presence of biopolymer: cdsDNA~5 × 10^−5 mol L^−1; for LOD: detection of dsDNA; for nHill, Hill coefficient / nSc, stoichiometric coefficient (Scatchard) / KeffHill, effective complexation constant (Hill) / KeffBH, effective complexation constant (Benesi–Hildebrand) / αb, proportion of bound dye / K2Sc, complexation constant (Scatchard) / Fmax/F0, fluorescence growth at 100% binding / K1Sc, complexation constant (Scatchard): dsDNA; for KeffHill, effective complexation constant (Hill) / KeffBH, effective complexation constant (Benesi–Hildebrand): PBS buffer; for KeffBH, effective complexation constant (Benesi–Hildebrand): fluorescent titration; for αb, proportion of bound dye: cbiomol = 5 × 10^−5 mol L^−1; for K2Sc, complexation constant (Scatchard): constant and nSc both varied; for Fmax/F0, fluorescence growth at 100% binding: from the Benesi–Hildebrand dependence; for K1Sc, complexation constant (Scatchard): nSc = const = 10 b.p.; for LOQ: quantification of dsDNA
Source text: (§1) Complexation of MCD 1–4 with DNA (double-stranded and single-stranded) and with human serum albumin (HSA) was studied by spectral fluorescent methods in a wide range of biopolymer concentrations (cdsDNA = 0–1.5 × 10^−4 mol L^−1; cssDNA = 0–1.4 × 10^−4 mol L^−1; cHSA = 0–1.4 × 10^−4 mol L^−1 in PBS buffer). The absorption, fluorescence, and fluorescence excitation spectra of MCD 1 and 3 in the presence of dsDNA are shown in Figure 3 and Figure 4, respectively.
(§2) The complication of chemical equilibrium, and the variety of interactions between MCD and biopolymer (dye aggregation/deaggregation, the possibility of forming complexes of several types with DNA/HSA) makes it problematic to determine the exact values of the complexation constants of the dyes with DNA. The values of the effective equilibrium constants of the complexation reaction of MCD with biopolymers (Keff, L mol^−1, see Table 7) were estimated from spectral fluorescent data. In this case, we had to assume a simple equilibrium MCD (monomer, free) ⇄ MCD (monomer, bound). For these purposes, we used the Benesi–Hildebrand [59], Hill, and Scatchard formalisms (See Supplementary Materials, Equations (S9)–(S13)). For dsDNA, fitting according to the modified Scatchard equation was carried out assuming one dye molecule per one DNA turn (K1Sc at nSc = const = 10 b.p.), as well as varying both the constant (K2Sc) and the stoichiometric coefficient (nSc). In the case of ssDNA, nSc is given per one base; for HSA, nSc = 1.
(§3) Single-stranded form of DNA (single-stranded DNA; ssDNA) was obtained according to the method described in [74]. The concentrations of DNA and the dyes were controlled spectrophotometrically. Molar extinction coefficient of dsDNA (ε, L⋅mol^−1⋅cm^−1) was taken to be 13,200 L mol^−1 cm^−1 (per base pair); for ssDNA, ε = 9045 L mol^−1 cm^−1 (per one base) was used. For MCD 1 and 2 in an aqueous buffer solution, we used extinction coefficients ε = 40,000 and 68,000 L mol^−1 cm^−1, respectively, which were taken from. For MCD 3 and 4, the molar extinction coefficients in ethanol solution were 69,200 and 49,000 L mol^−1 cm^−1 (taken from). […] Spectral fluorescent characteristics of MCD in complexes with biomacromolecules were studied by titration of dye solutions (see Supplementary Materials). The thermal dissociation (“melting”) of dsDNA in the presence of MCD was studied spectrophotometrically (λabs = 260 nm), the sample was heated (t° = 30–95 °C) using Peltier cells, and the temperature was controlled using a thermocouple. Melting points tm, corresponding to 50% hyperchromia of DNA samples were obtained.
(§4) Absorption spectra were recorded on an SF-2000 spectrophotometer (Experimental-Construction Company “Spectrum”, St. Petersburg, Russia); fluorescence and fluorescence excitation spectra were recorded on a Fluorat-02-Panorama spectrofluorimeter (Group of Companies “Lumex”, St. Petersburg, Russia). The fluorescence and fluorescence excitation spectra were corrected for the spectral characteristics of the instrument (excitation channel signal) and sample transmission. Changes in the intrinsic fluorescence of HSA upon binding of MCD (in the presence of the dyes) were recorded in the synchronous fluorescence scanning (SFS) mode. In SFS mode, when registering spectra, a fixed difference Δλ= λfl − λex is maintained for the channels of excitation and registration. Synchronous scanning spectra were obtained at Δλ = 15 nm (fluorescence of tyrosine residues in the HSA molecule) and Δλ = 60 nm (fluorescence of tryptophan). The spectra were measured in 1 cm quartz semi-micro cells (Bio-Rad, Hercules, CA, USA).
(§5) The equilibrium constants of MCD complexation with biomolecules (Ka, L mol^−1) were obtained from fluorescence spectra using the Benesi–Hildebrand [59], Hill, and Scatchard equations [61] (see Supplementary Materials, Equations (S9)–(S13)). […]

ssDNA = assay: Spectral fluorescent titration of the dyes with ssDNA in PBS; format: binding, chick; details: for φfl^b, fluorescence quantum yield of the dye in the presence of biopolymer: cssDNA~5 × 10^−5 mol L^−1; for LOD: detection of ssDNA; for LOQ: quantification of ssDNA; for K1Sc, complexation constant (Scatchard) / nHill, Hill coefficient / KeffHill, effective complexation constant (Hill) / KeffBH, effective complexation constant (Benesi–Hildebrand) / αb, proportion of bound dye / K2Sc, complexation constant (Scatchard) / Fmax/F0, fluorescence growth at 100% binding / nSc, stoichiometric coefficient (Scatchard): ssDNA; for KeffHill, effective complexation constant (Hill) / KeffBH, effective complexation constant (Benesi–Hildebrand): PBS buffer; for KeffBH, effective complexation constant (Benesi–Hildebrand): fluorescent titration; for αb, proportion of bound dye: cbiomol = 5 × 10^−5 mol L^−1; for K2Sc, complexation constant (Scatchard): constant and nSc both varied; for Fmax/F0, fluorescence growth at 100% binding: from the Benesi–Hildebrand dependence; for nSc, stoichiometric coefficient (Scatchard): per one base
Source text: as §1, §2, §3, §4, §5

[1] = target: T1, human serum albumin (HSA) (Homo sapiens, UniProt P02768); assay: Spectral fluorescent titration of the dyes with HSA in PBS; format: binding; details: for LR, linear portion of fluorescence intensity vs. concentration plot / nHill, Hill coefficient / KeffHill, effective complexation constant (Hill) / KeffBH, effective complexation constant (Benesi–Hildebrand) / αb, proportion of bound dye / Fmax/F0, fluorescence growth at 100% binding / K2Sc, complexation constant (Scatchard): HSA; for nSc, stoichiometric coefficient (Scatchard): HSA (nSc = 1 taken for HSA); for KeffHill, effective complexation constant (Hill) / KeffBH, effective complexation constant (Benesi–Hildebrand): PBS buffer; for KeffBH, effective complexation constant (Benesi–Hildebrand): fluorescent titration; for αb, proportion of bound dye: cbiomol = 5 × 10^−5 mol L^−1; for Fmax/F0, fluorescence growth at 100% binding: from the Benesi–Hildebrand dependence; for K2Sc, complexation constant (Scatchard): nSc = 1; for φfl^b, fluorescence quantum yield of the dye in the presence of biopolymer: cHSA~5 × 10^−5 mol L^−1; for LOD: detection of HSA; for LOQ: quantification of HSA
T1 construct: purchased Sigma-Aldrich
T1 sequence (P02768 25-609): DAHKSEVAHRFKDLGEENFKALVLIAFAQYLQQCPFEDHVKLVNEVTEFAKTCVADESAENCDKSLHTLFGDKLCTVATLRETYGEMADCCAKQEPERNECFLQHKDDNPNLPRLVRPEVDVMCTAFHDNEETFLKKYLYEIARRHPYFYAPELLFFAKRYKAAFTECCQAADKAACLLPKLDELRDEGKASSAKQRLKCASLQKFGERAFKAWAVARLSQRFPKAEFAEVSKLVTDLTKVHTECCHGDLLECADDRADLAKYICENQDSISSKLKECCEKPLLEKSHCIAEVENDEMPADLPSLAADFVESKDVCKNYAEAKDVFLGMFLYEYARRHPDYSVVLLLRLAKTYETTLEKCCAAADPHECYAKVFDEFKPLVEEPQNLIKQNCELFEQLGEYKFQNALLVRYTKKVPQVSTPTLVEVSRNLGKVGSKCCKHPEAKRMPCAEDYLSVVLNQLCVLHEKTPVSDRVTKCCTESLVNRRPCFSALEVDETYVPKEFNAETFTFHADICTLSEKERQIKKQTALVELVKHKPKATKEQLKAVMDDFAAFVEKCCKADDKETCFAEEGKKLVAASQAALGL
Source text: as §1, §2
Distilled water, 0.01 M aqueous phosphate buffer saline solution (PBS; pH 7.4, containing 0.137 M NaCl and 0.0027 M KCl), ethanol, benzyl alcohol, isopentyl alcohol, acetonitrile, DMSO, 1,4-dioxane, chloroform, DMSO, acetone, methyl ethyl ketone, ethyl acetate (all analytical grade). Commercial chick erythrocyte DNA (Reanal, Budapest, Hungary) and human serum albumin (HSA, Sigma-Aldrich, St. Louis, MO, USA) were used.
as §4
as §5, with “(S9)–(S13)). Limits of detection (LOD) and quantification (LOQ) of biomolecules were determined from concentration plots of MCD fluorescence intensities (see Supplementary Materials, Equations (S14) and (S15)).” for “(S9)–(S13)).”
1. Spectral‐Fluorescent Titration
In experiments on spectral‐fluorescence titration, MCD 1–4 were dosed from their concentrated st ock solutions in EtOH. Microvolumes (~0.5–5 μL) were dosed into the measuring cell (dilution 1:500 – 1:1000). […]
Measurements of the intrinsic fluorescence of HSA in the presence of MCD were carried out at a constant concentration of HSA (cHSA ~ 2.0 × 10–5 mol L–1) by titration with increasing concentrations of dyes. After stirring, the absorption and fluorescence spectra of the dyes were recorded several times. […]

Row | SMILES | Ifl/Ifl0, relative increase in the fluorescence intensity (dsDNA) [times] | hypochromia of the absorption band (dsDNA) [%] | φfl^b, fluorescence quantum yield of the dye in the presence of biopolymer (dsDNA) [%] | LOD (dsDNA) [nM] | nHill, Hill coefficient (dsDNA) | nSc, stoichiometric coefficient (Scatchard) (dsDNA) | KeffHill, effective complexation constant (Hill) (dsDNA) [L/mol] | KeffBH, effective complexation constant (Benesi–Hildebrand) (dsDNA) [L/mol] | αb, proportion of bound dye (dsDNA) [%] | K2Sc, complexation constant (Scatchard) (dsDNA) [L/mol] | Fmax/F0, fluorescence growth at 100% binding (dsDNA) | K1Sc, complexation constant (Scatchard) (dsDNA) [L/mol] | LOQ (dsDNA) [nM] | φfl^b, fluorescence quantum yield of the dye in the presence of biopolymer (ssDNA) [%] | LOD (ssDNA) [nM] | LOQ (ssDNA) [nM] | K1Sc, complexation constant (Scatchard) (ssDNA) [L/mol] | nHill, Hill coefficient (ssDNA) | KeffHill, effective complexation constant (Hill) (ssDNA) [L/mol] | KeffBH, effective complexation constant (Benesi–Hildebrand) (ssDNA) [L/mol] | also measured
1 | CCN1/C(=C/c2sc3ccccc3[n+]2CC)Sc2ccccc21 [MCD 3] | 79 | 44 | 4.8 ± 0.5 | 41 | 0.88 | 35 | 6900 | 13500 | 40 | 480000 | 136 | 135000 | 126 | 4.7 ± 0.5 | 87 | 260 | 112000 | 0.76 | 2940 | 11600 | αb, proportion of bound dye (ssDNA): 37%; K2Sc, complexation constant (Scatchard) (ssDNA): 430000 L/mol; Fmax/F0, fluorescence growth at 100% binding (ssDNA): 71; nSc, stoichiometric coefficient (Scatchard) (ssDNA): 37; LR, linear portion of fluorescence intensity vs. concentration plot [1]: 0 to 1 µmol/L; nHill, Hill coefficient [1]: 0.59; nSc, stoichiometric coefficient (Scatchard) [1]: 1; KeffHill, effective complexation constant (Hill) [1]: 27800 L/mol; KeffBH, effective complexation constant (Benesi–Hildebrand) [1]: 17600 L/mol; αb, proportion of bound dye [1]: 50%; Fmax/F0, fluorescence growth at 100% binding [1]: 26; K2Sc, complexation constant (Scatchard) [1]: 34000 L/mol; φfl^b, fluorescence quantum yield of the dye in the presence of biopolymer [1]: 50%; φfl^b, fluorescence quantum yield of the dye in the presence of biopolymer ([1]; listed as 3): ~50 ± 6%; LOD [1]: 77 nM; LOQ [1]: 230 nM
2 | CCN1/C(=C/c2ccc3ccccc3[n+]2CC)C=Cc2ccccc21 [MCD 4] | 115 | 36 | ~1.5 ± 0.2 | 94 | 0.62 | 2 | 1850 | 19500 | 46 | 37000 | 169 | 186000 | 210 | ~1.4 ± 0.2 | 760 | 2300 | 65000 | 0.57 | 350 | 6800 | decrease of the observed extinction coefficients (ssDNA; cssDNA~8 × 10^−5 mol L^−1): 54%; αb, proportion of bound dye (ssDNA): 25%; K2Sc, complexation constant (Scatchard) (ssDNA): 19500 L/mol; Fmax/F0, fluorescence growth at 100% binding (ssDNA): 61; nSc, stoichiometric coefficient (Scatchard) (ssDNA): 3; LR, linear portion of fluorescence intensity vs. concentration plot [1]: 0.7–7.5 ^2 µmol L^−1; nHill, Hill coefficient [1]: 0.61; nSc, stoichiometric coefficient (Scatchard) [1]: 1; KeffHill, effective complexation constant (Hill) [1]: 1830 L/mol; KeffBH, effective complexation constant (Benesi–Hildebrand) [1]: 4820 L/mol; αb, proportion of bound dye [1]: 20%; Fmax/F0, fluorescence growth at 100% binding [1]: 109; K2Sc, complexation constant (Scatchard) [1]: 17000 L/mol; φfl^b, fluorescence quantum yield of the dye in the presence of biopolymer [1]: ~0.5 ± 0.1%; LOD [1]: 730 nM; drop in the apparent extinction coefficients ([1]; interaction with HSA): 1.5–2 fold; LOQ [1]: 2200 nM

— paper PMC10531095, “Photonics of Some Monomethine Cyanine Dyes in Solutions and in Complexes with Biomolecules” (International Journal of Molecular Sciences, 2023)
